Measured values published in paper PMC5062114, “Dual-targeting anti-angiogenic cyclic peptides as potential drug leads for cancer therapy” (Scientific Reports, 2016).
Bridge positions count the residues as written; N and C are the ends. Square brackets hold non-standard residues; d marks the D form. Peptide text beside a SMILES is read from it.

Columns and labels:
Assay in all cases: cells
PC3 = settings: read-out: IC50 ± S.D.; 48 hours, PC3; cell proliferation inhibition, MTT, 48-h incubation, 1.5 × 10^3 cells/well, triplicate, mean ± SD
Procedure: (§1) HUVECs (human umbilical vein endothelial cells) were cultured in EGM™-2 BulletKit™ supplemented with SingleQuots™ (supplements: growth factors, cytokines, antibiotics; Lonza) and 10% FBS (catalog no. FFBS-500; Scientifix). Both HT-29 and MCF-7 cells were cultured in 10% FBS/DMEM (Dulbecco’s Modified Eagle Medium) with 1% penicillin–streptomycin (5000 U/mL; Life Technologies), whereas PC3 cells (prostate cancer cells) were cultured in 10% FBS/RPMI (Roswell Park Memorial Institute) 1640 with 1% penicillin–streptomycin (5000 U/mL; Life Technologies). All cells were maintained at 37 °C in 5% CO2.
(§2) Cell cytotoxicity and proliferation assays were performed using similar methods to those described by Chan et al.[45]. All cells were maintained using the media conditions described above, and passages two to ten were used for all cell lines. For all cell lines, 5.0 × 10^3 cells/well (100 μL) and 1.5 × 10^3 cells/well (100 μL) were used for cell cytotoxicity and cell proliferation assays, respectively. All peptides (10 μL, at final concentrations ranging from 0.05–100 μM) and drugs, which included cilengitide, octreotide and sunitinib (at final concentrations ranging from 0.00001–100 μM), were used in both assays. Triton X-100 (0.1% (v/v); 10 μL) was used as a positive control. Cells were treated with fresh media the day after plating, before the addition of peptides, followed by a subsequent 2-h and 48-h incubation for cell cytotoxicity and cell proliferation, respectively. After different incubation periods, 3-(4, 5-dimethylthiazolyl-2)-2,5-diphenyltetrazolium bromide (MTT) (10 μL; 5 mg/mL in PBS) was added, and cells were incubated for a further 4 h. The supernatant was then removed and 100 μL DMSO added to solubilize formazan salts. Experiments were performed in triplicate. Cell numbers were recorded at 600 nm. All data represent average mean ± SD.

MCF-7 = settings: read-out: IC50 ± S.D.; 48 hours, MCF-7; cell proliferation inhibition, MTT, 48-h incubation, 1.5 × 10^3 cells/well, triplicate, mean ± SD
Procedure: as §1, §2

HT-29 = settings: read-out: IC50 ± S.D.; 48 hours, HT-29; cell proliferation inhibition, MTT, 48-h incubation, 1.5 × 10^3 cells/well, triplicate, mean ± SD
Procedure: as §1, §2

HUVEC = settings: read-out: IC50 ± S.D.; 48 hours, HUVEC; cell proliferation inhibition, MTT, 48-h incubation, 1.5 × 10^3 cells/well, triplicate, mean ± SD
Procedure: as §1, §2

CC[C@H](C)[C@@H]1NC(=O)[C@@H]2CSSC[C@@H]3NC(=O)[C@H](Cc4ccccc4)NC(=O)[C@@H]4CCCN4C(=O)[C@H](CCC(N)=O)NC(=O)[C@H](CC(N)=O)NC(=O)[C@H](CC(C)C)NC(=O)[C@H](Cc4c[nH]cn4)NC(=O)[C@H](Cc4ccc(O)cc4)NC(=O)[C@@H]4CSSC[C@H](NC(=O)[C@H](CC(=O)O)NC(=O)[C@H](CO)NC(=O)[C@H](CC(=O)O)NC(=O)[C@H](CCCNC(=N)N)NC(=O)[C@H](CCCNC(=N)N)NC(=O)[C@H](CSSC[C@H](NC1=O)C(=O)N[C@@H](CCCNC(=N)N)C(=O)NCC(=O)N[C@@H](CC(N)=O)C(=O)NCC(=O)N[C@@H](Cc1ccc(O)cc1)C(=O)N4)NC(=O)[C@H](CCCCN)NC(=O)[C@H](CCCCN)NC(=O)[C@H](CC(C)C)NC(=O)[C@H]([C@@H](C)CC)NC(=O)[C@H](CCCCN)NC(=O)[C@@H]1CCCN1C3=O)C(=O)N1CCC[C@H]1C(=O)NCC(=O)N[C@@H](C)C(=O)N2 [MCo-PEDF] (cyclo(ACICRGNGYCYHLNQPFCPKILKKCRRDSDCPG); disulfide 2-18, 4-25, 10-31) gave an IC50 (PC3) of 39.11 ± 0.07 µM, an IC50 (MCF-7) of 53.44 ± 0.14 µM and an IC50 (HT-29) of 35.22 ± 0.08 µM. For the same molecule, the IC50 (HUVEC) was 50.16 ± 0.15 µM.

For CC[C@H](C)[C@@H]1NC(=O)[C@@H]2CSSC[C@@H]3NC(=O)[C@H](Cc4c[nH]c5ccccc45)NC(=O)[C@H]([C@@H](C)O)NC(=O)[C@H](CCCCN)NC(=O)[C@@H](Cc4c[nH]c5ccccc45)NC(=O)[C@H](Cc4ccccc4)NC(=O)[C@H](CCCNC(=N)N)NC(=O)[C@@H]4CSSC[C@H](NC(=O)[C@H](CC(=O)O)NC(=O)[C@H](CO)NC(=O)[C@H](CC(=O)O)NC(=O)[C@H](CCCNC(=N)N)NC(=O)[C@H](CCCNC(=N)N)NC(=O)[C@H](CSSC[C@H](NC1=O)C(=O)N[C@@H](CCCNC(=N)N)C(=O)NCC(=O)N[C@@H](CC(N)=O)C(=O)NCC(=O)N[C@@H](Cc1ccc(O)cc1)C(=O)N4)NC(=O)[C@H](CCCCN)NC(=O)[C@H](CCCCN)NC(=O)[C@H](CC(C)C)NC(=O)[C@H]([C@@H](C)CC)NC(=O)[C@H](CCCCN)NC(=O)[C@@H]1CCCN1C3=O)C(=O)N1CCC[C@H]1C(=O)NCC(=O)N[C@@H](C)C(=O)N2 [MCo-SST-02] (cyclo(ACICRGNGYCRF[dW]KTWCPKILKKCRRDSDCPG); disulfide 2-17, 4-24, 10-30), the IC50 (PC3) was 83.55 ± 0.2 µM, the IC50 (MCF-7) was 70.61 ± 0.11 µM and the IC50 (HT-29) was 58.89 ± 0.09 µM. The IC50 (HUVEC) was greater than 100 µM.

CC[C@H](C)[C@@H]1NC(=O)[C@@H]2CSSC[C@@H]3NC(=O)[C@H](C(C)C)NC(=O)CNC(=O)CNC(=O)[C@H](CC(=O)O)NC(=O)[C@H](CO)NC(=O)CNC(=O)[C@H](CO)NC(=O)CNC(=O)[C@@H]4CSSC[C@H](NC(=O)[C@H](CC(=O)O)NC(=O)[C@H](CO)NC(=O)[C@H](CC(=O)O)NC(=O)[C@H](CCCNC(=N)N)NC(=O)[C@H](CCCNC(=N)N)NC(=O)[C@H](CSSC[C@H](NC1=O)C(=O)N[C@@H](CCCNC(=N)N)C(=O)NCC(=O)N[C@@H](CC(N)=O)C(=O)NCC(=O)N[C@@H](Cc1ccc(O)cc1)C(=O)N4)NC(=O)[C@H](CCCNC(=N)N)NC(=O)[C@H](CCCNC(=N)N)NC(=O)[C@H](CCCNC(=N)N)NC(=O)[C@H](CCCCN)NC(=O)[C@H](CCCNC(=N)N)NC(=O)[C@H](CCCNC(=N)N)NC3=O)C(=O)N1CCC[C@H]1C(=O)NCC(=O)N[C@@H](C)C(=O)N2 [MCo-polyR-L1] (cyclo(ACICRGNGYCGSGSDGGVCRRKRRRCRRDSDCPG); disulfide 2-19, 4-26, 10-32) gave an IC50 (PC3) greater than 100 µM, an IC50 (MCF-7) greater than 100 µM and an IC50 (HT-29) greater than 100 µM. For the same molecule, the IC50 (HUVEC) was greater than 100 µM.

CC[C@H](C)[C@@H]1NC(=O)[C@@H]2CSSC[C@@H]3NC(=O)CNC(=O)[C@H](CCCNC(=N)N)NC(=O)[C@H](CCCNC(=N)N)NC(=O)[C@H](CCCNC(=N)N)NC(=O)[C@H](CCCCN)NC(=O)[C@H](CCCNC(=N)N)NC(=O)[C@H](CCCNC(=N)N)NC(=O)CNC(=O)[C@@H]4CSSC[C@H](NC(=O)[C@H](CC(=O)O)NC(=O)[C@H](CO)NC(=O)[C@H](CC(=O)O)NC(=O)[C@H](CCCNC(=N)N)NC(=O)[C@H](CCCNC(=N)N)NC(=O)[C@H](CSSC[C@H](NC1=O)C(=O)N[C@@H](CCCNC(=N)N)C(=O)NCC(=O)N[C@@H](CC(N)=O)C(=O)NCC(=O)N[C@@H](Cc1ccc(O)cc1)C(=O)N4)NC(=O)[C@H](CCCCN)NC(=O)[C@H](CCCCN)NC(=O)[C@H](CC(C)C)NC(=O)[C@H]([C@@H](C)CC)NC(=O)[C@H](CCCCN)NC(=O)[C@@H]1CCCN1C3=O)C(=O)N1CCC[C@H]1C(=O)NCC(=O)N[C@@H](C)C(=O)N2 [MCo-polyR-L6] (cyclo(ACICRGNGYCGRRKRRRGCPKILKKCRRDSDCPG); disulfide 2-19, 4-26, 10-32) gave an IC50 (PC3) greater than 100 µM, an IC50 (MCF-7) greater than 100 µM and an IC50 (HT-29) of 52.89 ± 0.11 µM. The IC50 (HUVEC) was 34.95 ± 0.03 µM.

For CC[C@H](C)[C@@H]1NC(=O)[C@@H]2CSSC[C@@H]3NC(=O)[C@H](C(C)C)NC(=O)CNC(=O)CNC(=O)[C@H](CC(=O)O)NC(=O)[C@H](CO)NC(=O)CNC(=O)[C@H](CO)NC(=O)CNC(=O)[C@@H]4CSSC[C@H](NC(=O)[C@H](CC(=O)O)NC(=O)[C@H](CO)NC(=O)[C@H](CC(=O)O)NC(=O)[C@H](CCCNC(=N)N)NC(=O)[C@H](CCCNC(=N)N)NC(=O)[C@H](CSSC[C@H](NC1=O)C(=O)N[C@@H](CCCNC(=N)N)C(=O)N[C@@H](Cc1ccc(O)cc1)C(=O)N[C@H](Cc1c[nH]c5ccccc15)C(=O)N[C@@H](CCCCN)C(=O)N[C@@H](C(C)C)C(=O)N4)NC(=O)CNC(=O)[C@H](CCCNC(=N)N)NC(=O)[C@H](CCCNC(=N)N)NC(=O)[C@H](CCCNC(=N)N)NC(=O)[C@H](CCCCN)NC(=O)[C@H](CCCNC(=N)N)NC(=O)[C@H](CCCNC(=N)N)NC(=O)CNC3=O)C(=O)N1CCC[C@H]1C(=O)NCC(=O)N[C@@H](C)C(=O)N2 [MCoAA-01] (cyclo(ACICRY[dW]KVCGSGSDGGVCGRRKRRRGCRRDSDCPG); disulfide 2-19, 4-28, 10-34), the IC50 (PC3) was greater than 100 µM, the IC50 (MCF-7) was 45.01 ± 0.16 µM and the IC50 (HT-29) was 40.12 ± 0.13 µM. It also gave an IC50 (HUVEC) of 10.83 ± 0.09 µM.

CC[C@H](C)[C@@H]1NC(=O)[C@@H]2CCCN2C(=O)[C@@H]2CCCN2C(=O)[C@H]([C@@H](C)CC)NC(=O)[C@H](CO)NC(=O)[C@H](CCCCN)NC(=O)[C@H]([C@@H](C)O)NC(=O)[C@@H]2CSSC[C@H](NC1=O)C(=O)N[C@@H](Cc1ccccc1)C(=O)N1CCC[C@H]1C(=O)N[C@@H](CC(=O)O)C(=O)NCC(=O)N[C@@H](CCCNC(=N)N)C(=O)N2 [SFTI-1, sunflower trypsin inhibitor-1, reference compound] gave an IC50 (PC3) greater than 100 µM, an IC50 (MCF-7) greater than 100 µM and an IC50 (HT-29) greater than 100 µM. For the same molecule, the IC50 (HUVEC) was greater than 100 µM.

CC[C@H](C)[C@@H]1NC(=O)[C@@H]2CCCN2C(=O)[C@@H]2CCCN2C(=O)[C@H]([C@@H](C)CC)NC(=O)[C@H](CO)NC(=O)[C@H](CCCCN)NC(=O)[C@H]([C@@H](C)O)NC(=O)[C@@H]2CSSC[C@H](NC1=O)C(=O)N[C@@H](Cc1ccc(O)cc1)C(=O)N[C@@H](Cc1c[nH]cn1)C(=O)N[C@@H](CC(C)C)C(=O)N[C@@H](CC(N)=O)C(=O)N[C@@H](CCC(N)=O)C(=O)N1CCC[C@H]1C(=O)N[C@@H](Cc1ccccc1)C(=O)N2 [SFTI-PEDF] (cyclo(CTKSIPPICYHLNQPF); disulfide 1-9) showed an IC50 (PC3) greater than 100 µM, an IC50 (MCF-7) greater than 100 µM and an IC50 (HT-29) greater than 100 µM. The IC50 (HUVEC) was 27.89 ± 0.11 µM.

In the case of CC[C@H](C)[C@@H]1NC(=O)[C@@H]2CCCN2C(=O)[C@@H]2CCCN2C(=O)[C@H]([C@@H](C)CC)NC(=O)[C@H](CO)NC(=O)[C@H](CCCCN)NC(=O)[C@H]([C@@H](C)O)NC(=O)[C@@H]2CSSC[C@H](NC1=O)C(=O)N[C@@H](Cc1ccc(O)cc1)C(=O)N[C@H](Cc1c[nH]c3ccccc13)C(=O)N[C@@H](CCCCN)C(=O)N[C@@H](C(C)C)C(=O)N2 [SFTI-SST-01] (cyclo(CTKSIPPICY[dW]KV); disulfide 1-9), the IC50 (PC3) is reported as greater than 100 µM, the IC50 (MCF-7) is reported as 46.07 ± 0.05 µM and the IC50 (HT-29) is reported as 45.38 ± 0.03 µM. For the same molecule, the IC50 (HUVEC) was 18.32 ± 0.05 µM.
